Measured values as given in patent US9321762B2, “Quinazoline compounds, method for preparing the same and use thereof” (DEVELOPMENT CENTER FOR BIOTECHNOLOGY, priority 2013, dated 2016).
Where two headings read alike, the source gives them in different places.

Molecular target: T1, B-Raf kinase (Homo sapiens, UniProt P15056)
T1 construct: purchased Upstate Biotechnology
Assay: B-Raf kinase assay ([33P] incorporation into MEK1(K97R))
Type: biochemical
Details: 8 μM ATP, read-out: IC50 against B-Raf kinase
Procedure: Inhibition of kinase activity by a test compound disclosed herein was estimated by quantifying the amount of [^33P] incorporation of a substrate in the presence of the test compound. Standard assay conditions were 5 ng of recombinant B-Raf kinase (Upstate Biotechnology) with 500 ng MEK1(K97R) in assay buffer (8 μM ATP, 0.5 μCi [^33P]ATP (specific activity 3000 Ci/mmol, PerkinElmer), 50 mM Tris/HCl (pH7.5), and 1 mM EGTA, 1 mM Na3VO4, 1% 2-mercaptoethanol, 0.1% Brij 35, and 0.2 mg/ml BSA) in a final volume of 25 μL. Reactions were incubated at 30° C. for 30 min and stopped by adding 3% phosphoric acid, harvested onto a 96-well GF/B UniFilter (PerkinElmer) using a unifilter harvester (PerkinElmer), and counted with a TopCount microplate scintillation counter (PerkinElmer). The IC50 values of inhibitors were determined after carrying out assays at 3-fold serially diluted concentrations of each compound in duplication. The results were analyzed using linear regression software (GraphPad Prism 4; GraphPad Software Inc.).

T1 sequence (P15056 whole entry): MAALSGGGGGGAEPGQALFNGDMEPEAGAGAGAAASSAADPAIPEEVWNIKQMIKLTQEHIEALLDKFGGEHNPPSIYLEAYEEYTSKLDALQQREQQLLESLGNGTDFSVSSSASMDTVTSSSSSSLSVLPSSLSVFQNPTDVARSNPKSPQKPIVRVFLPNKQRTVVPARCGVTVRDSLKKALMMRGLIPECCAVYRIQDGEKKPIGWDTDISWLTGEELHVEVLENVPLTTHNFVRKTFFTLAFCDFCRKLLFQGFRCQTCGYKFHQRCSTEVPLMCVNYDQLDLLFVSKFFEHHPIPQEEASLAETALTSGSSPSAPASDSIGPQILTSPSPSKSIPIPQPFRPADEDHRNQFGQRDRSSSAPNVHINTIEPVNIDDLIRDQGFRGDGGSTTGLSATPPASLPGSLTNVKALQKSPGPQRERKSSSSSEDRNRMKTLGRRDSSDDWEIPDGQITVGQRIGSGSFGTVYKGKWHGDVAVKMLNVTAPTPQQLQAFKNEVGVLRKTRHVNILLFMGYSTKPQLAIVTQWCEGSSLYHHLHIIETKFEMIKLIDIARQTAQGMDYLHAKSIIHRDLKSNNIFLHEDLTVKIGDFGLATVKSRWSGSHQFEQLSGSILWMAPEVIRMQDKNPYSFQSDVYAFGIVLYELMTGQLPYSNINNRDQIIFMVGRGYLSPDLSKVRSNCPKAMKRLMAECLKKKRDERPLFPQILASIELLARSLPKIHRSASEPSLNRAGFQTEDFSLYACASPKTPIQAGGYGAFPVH

Row | SMILES | IC50 (class symbols) [nM] | IC50 (given as bound) [nM]
1 | CCCS(=O)(=O)Nc1ccc(F)c(Nc2ncnc3ccc(-c4ccc[nH]c4=O)cc23)c1F [compound 26, N-(2,4-difluoro-3-(6-(2-oxo-1,2-dihydropyridin-3-yl)quinazolin-4-ylamino)phenyl)propane-1-sulfonamide] | 1000 to 10000 | –
2 | CCCS(=O)(=O)Nc1ccc(F)c(Nc2ncnc3ccc(N4CCOCC4)cc23)c1F [compound 42, N-(2,4-difluoro-3-(6-morpholinoquinazolin-4-ylamino)phenyl)propane-1-sulfonamide] | 1000 to 10000 | –
3 | CCCS(=O)(=O)Oc1ccc(F)c(Nc2ncnc3ccc(-c4cccnc4F)cc23)c1F [compound 40, 2,4-difluoro-3-(6-(2-fluoropyridin-3-yl)quinazolin-4-ylamino)phenyl propane-1-sulfonate] | – | > 10000
4 | CC(C)S(=O)(=O)Nc1ccc(F)c(Nc2ncnc3ccc(-c4cccnc4F)cc23)c1F [compound 20, N-(2,4-difluoro-3-(6-(2-fluoropyridin-3-yl)quinazolin-4-ylamino)phenyl)propane-2-sulfonamide] | 1000 to 10000 | –
5 | CCS(=O)(=O)Nc1ccc(F)c(Nc2ncnc3ccc(-c4cccnc4F)cc23)c1F [compound 19, N-(2,4-difluoro-3-(6-(2-fluoropyridin-3-yl)quinazolin-4-ylamino)phenyl)ethanesulfonamide] | 1000 to 10000 | –
6 | CS(=O)(=O)Nc1ccc(F)c(Nc2ncnc3ccc(-c4cccnc4F)cc23)c1F [compound 10, N-(2,4-difluoro-3-(6-(2-fluoropyridin-3-yl)quinazolin-4-ylamino)phenyl)methanesulfonamide] | 1000 to 10000 | –
7 | CCCS(=O)(=O)Nc1ccc(F)c(Nc2ncnc3ccc(-c4cccc(N)n4)cc23)c1F [compound 61, N-(3-(6-(6-aminopyridin-2-yl)quinazolin-4-ylamino)-2,4-difluorophenyl)propane-1-sulfonamide] | 300 to 1000 | –
8 | C#Cc1ccc2ncnc(Nc3c(F)ccc(NS(=O)(=O)CCC)c3F)c2c1 [compound 49, N-(3-(6-ethynylquinazolin-4-ylamino)-2,4-difluorophenyl)propane-1-sulfonamide] | 1000 to 10000 | –
9 | CCCS(=O)(=O)Nc1cc(Nc2ncnc3ccc(-c4cccnc4F)cc23)c(F)cc1F [compound 11, N-(2,4-difluoro-5-(6-(2-fluoropyridin-3-yl)-quinazolin-4-ylamino)phenyl)propane-1-sulfonamide] | – | > 10000
10 | CCCS(=O)(=O)Nc1ccc(F)c(Nc2ncnc3cc(NCCN(C)C)c(-c4ccncc4)cc23)c1F [compound 22, N-(3-(7-(2-(dimethylamino)ethylamino)-6-(pyridin-4-yl)quinazolin-4-ylamino)-2,4-difluorophenyl)propane-1-sulfonamide] | – | > 10000
11 | CCCS(=O)(=O)Nc1ccc(F)c(Nc2ncnc3ccc(-c4c[nH]nn4)cc23)c1F [compound 52, N-(3-(6-(1H-1,2,3-triazol-4-yl)quinazolin-4-ylamino)-2,4-difluorophenyl)propane-1-sulfonamide] | – | > 10000
12 | CCCS(=O)(=O)Nc1ccc(F)c(Nc2ncnc3ccc(-c4ccc(OCCOC)nc4)cc23)c1F [compound 33, N-(2,4-difluoro-3-(6-(6-(2-methoxyethoxy)pyridin-3-yl)quinazolin-4-ylamino)phenyl)propane-1-sulfonamide] | 300 to 1000 | –
13 | CCCS(=O)(=O)Nc1ccc(F)c(Nc2ncnc3ccc(-c4cncc(C(F)(F)F)c4)cc23)c1F [compound 65, N-(2,4-difluoro-3-(6-(5-(trifluoromethyl)pyridin-3-yl)quinazolin-4-ylamino)phenyl)propane-1-sulfonamide] | 300 to 1000 | –
14 | CCCS(=O)(=O)Nc1ccc(F)c(Nc2ncnc3ccc(-c4cccnc4F)cc23)c1 [compound 6, N-(4-fluoro-3-(6-(2-fluoropyridin-3-yl)-quinazolin-4-ylamino)phenyl)propane-1-sulfonamide] | 1000 to 10000 | –
15 | CCCS(=O)(=O)Nc1c(F)ccc(Nc2ncnc3ccc(-c4ccncc4)cc23)c1F [compound 17, N-(2,6-difluoro-3-(6-(pyridin-4-yl)quinazolin-4-ylamino)phenyl)propane-1-sulfonamide] | 1000 to 10000 | –
16 | CCCS(=O)(=O)Nc1ccc(F)c(Nc2ncnc3ccc(-n4ccnc4)cc23)c1F [compound 43, N-(3-(6-(1H-imidazol-1-yl)quinazolin-4-ylamino)-2,4-difluorophenyl)propane-1-sulfonamide] | 1000 to 10000 | –
17 | CCCS(=O)(=O)Nc1ccc(F)c(Oc2ncnc3ccc(-c4cccnc4F)cc23)c1F [compound 34, N-(2,4-difluoro-3-(6-(2-fluoropyridin-3-yl)-quinazolin-4-yloxy)phenyl)propane-1-sulfonamide] | 300 to 1000 | –
18 | CCCS(=O)(=O)Nc1ccc(F)c(Nc2ncnc3ccc(-c4cccnc4F)c(F)c23)c1F [compound 56, N-(2,4-difluoro-3-(5-fluoro-6-(2-fluoropyridin-3-yl)quinazolin-4-ylamino)phenyl)propane-1-sulfonamide] | 300 to 1000 | –
19 | O=S1(=O)CCCN1c1ccc(F)c(Nc2ncnc3ccc(-c4cccnc4F)cc23)c1F [compound 55, N-(2,4-difluoro-3-(6-(2-fluoropyridin-3-yl)quinazolin-4-ylamino)phenyl)propanesultam] | – | > 10000
20 | CCCS(=O)(=O)Nc1ccc(F)c(Nc2ncnc3ccc(-n4cnc5ccccc54)cc23)c1F [compound 47, N-(3-(6-(1H-benzo[d]imidazol-1-yl)-quinazolin-4-ylamino)-2,4-difluorophenyl)propane-1-sulfonamide] | – | > 10000
21 | CCCS(=O)(=O)Nc1ccc(F)c(Nc2ncnc3ccc(-c4cccnc4C#N)cc23)c1F [compound 64, N-(3-(6-(2-cyanopyridin-3-yl)quinazolin-4-ylamino)-2,4-difluorophenyl)propane-1-sulfonamide] | 300 to 1000 | –
22 | CCCS(=O)(=O)Nc1ccc(F)c(Nc2ncnc3ccc(-c4cccc(N5CCOCC5)n4)cc23)c1F [compound 41, N-(2,4-difluoro-3-(6-(6-morpholinopyridin-2-yl)quinazolin-4-ylamino)phenyl)propane-1-sulfonamide] | 300 to 1000 | –
23 | CCCS(=O)(=O)Nc1ccc(F)c(Nc2ncnc3ccc(-c4cccnc4OC)cc23)c1F [compound 23, N-(2,4-difluoro-3-(6-(2-methoxypyridin-3-yl)quinazolin-4-ylamino)phenyl)propane-1-sulfonamide] | 1000 to 10000 | –
24 | CCCS(=O)(=O)Nc1ccc(F)c(Nc2ncnc3cc(OC)c(-c4ccncc4)cc23)c1F [compound 30, N-(2,4-difluoro-3-(7-methoxy-6-(pyridin-4-yl)quinazolin-4-ylamino)phenyl)propane-1-sulfonamide] | 1000 to 10000 | –
25 | CCCS(=O)(=O)Nc1c(F)ccc(Nc2ncnc3ccc(-c4cccnc4F)cc23)c1F [compound 16, N-(2,6-difluoro-3-(6-(2-fluoropyridin-3-yl)quinazolin-4-ylamino)phenyl)propane-1-sulfonamide] | – | > 10000
26 | CCCS(=O)(=O)Nc1ccc(F)c(Nc2ncnc3ccc(-c4cccnc4)cc23)c1F [compound 5, N-(2,4-difluoro-3-(6-(pyridin-3-yl)-quinazolin-4-ylamino)phenyl)propane-1-sulfonamide] | – | > 10000
27 | CCCS(=O)(=O)Nc1ccc(F)c(Nc2ncnc3ccc(-c4cnc(OC)c(N)c4)cc23)c1F [compound 60, N-(3-(6-(5-amino-6-methoxypyridin-3-yl)quinazolin-4-ylamino)-2,4-difluorophenyl)propane-1-sulfonamide] | 300 to 1000 | –
28 | CCCS(=O)(=O)Nc1ccc(F)c(Nc2ncnc3ccc(-c4cnc(N)c(C)c4)cc23)c1F [compound 67, N-(3-(6-(6-amino-5-methylpyridin-3-yl)quinazolin-4-ylamino)-2,4-difluorophenyl)propane-1-sulfonamide] | 300 to 1000 | –
29 | CCCS(=O)(=O)N(C)c1ccc(F)c(N(C)c2ncnc3ccc(-c4cccnc4F)cc23)c1F [compound 53, N-(2,4-difluoro-3-((6-(2-fluoropyridin-3-yl)-quinazolin-4-yl)(methyl)amino)phenyl)-N-methylpropane-1-sulfonamide] | 300 to 1000 | –
